Test: Penetration of niacinamide and glycerin into silk artificial epidermis (cross-sectional Raman spectroscopy)
Format: in vitro ADME
Settings: applied on surface for 30 min and 4 h
Procedure: LabRAM Soleil™ Raman spectroscopy was used to measure the penetration of compounds into the silk film. The silk artificial epidermis was first immersed in water for 10 min. Then, the silk artificial epidermis was taken out and wiped with a wiper to remove surface water. Next, niacinamide or glycerin was applied on the surface of the silk artificial epidermis and left to sit for 30 min or 4 h. Finally, the resultant sample was taken for cross-sectional Raman spectroscopy to determine the penetration of the chemicals into silk artificial epidermis.

| SMILES | penetration depth into silk artificial epidermis |
| --- | --- |
| OCC(O)CO [glycerin] | penetrate into half-depth |
| NC(=O)c1cccnc1 [niacinamide] | penetrate into half-depth |

— patent publication US20230131248A1, “A SKIN TEST PLATFORM FORMED FROM A COMPOSITE MATERIAL” (Nanyang Technological University, priority 2020, published 2023)
